# Literature values, collected in patent publication US20210235730A1, “FOOD PROTECTION OF FRUIT, CEREAL AND VEGETABLE AND DERIVATIVES” (Hawei Technologies Co., Ltd., priority 2018, published 2021).
# What was measured:
# moulds and yeasts = settings: raw pork, heat-treated and pasteurised
# [1] = system: coliform microorganisms and arerobic spore-forming microorganisms; settings: raw pork, heat-treated and pasteurised
structure (smiles),measurement,setting,value
N=C(N)N [guanidium],effect on growth of moulds and yeasts,moulds and yeasts,has an effect on the growth
same,effect on coliform and aerobic spore-forming microorganisms,[1],not significantly influenced
